# Measurements reported in patent US10835548B2, “Metronomic oral gemcitabine for cancer therapy” (priority 2016, dated 2020).
# Read-outs that look alike come from different tables or passages of the source.
# Key:
# [1] = system: CFPAC-1 pancreatic cancer xenografts; assay: 5FU injection followed by GEMORAL in CFPAC-1 xenografted mouse model; format: in vivo, BALB/c nude mice
# Protocol: Pancreatic cancer monotherapy using 5-fluorouracil (5FU) injection is known. […] We investigated oral metronomic GEM administration as a second-line treatment in 5FU-non-responsive pancreatic tumors using a xenograft model. To prepare the xenografted mice used in the study, 1×10^6 human CFPAC-1 pancreatic cancer cells were transplanted subcutaneously on the right flank of 6 week old male BALB/c nude mice. Tumor growth was observed once a week, tumor volume was measured as L×W^2/2 by caliper, and mice were selected for inclusion in the study when their tumor volume reached about 131 cubic millimeters. […] The day on which mice were first dosed was designated “Day 0” of the study, and the study continued for 112 days. Mice of Group 1 were orally administered 10 mg/kg GEMORAL every other day (i.e., Q2D×56), beginning on day 0 of the study and extending through the end of the study. […] Beginning on day 63 of the study, the mice were orally administered 10 mg/kg GEMORAL every other day (i.e., Q2D×25) through the end of the study. […] Beginning on day 21 of the study, the mice were orally administered 10 mg/kg GEMORAL every other day (i.e., Q2D×46) through the end of the study. […] They were intraperitoneally injected with saline on days 0, 3, 6, and 9 of the study (i.e., Q3D×4). […]
# [2] = intravenous infusion, human cancer patients; cited from earlier work
# [3] = system: HuCCT1 cholangiocarcinoma xenografts; assay: Xenografted mouse model of human cholangiocarcinoma cell line HuCCT1; format: in vivo, BALB/c nude mice; details: Group 1: GEM 60 mg/kg i.p. Q3D×4
# Protocol: Example 3 is a study in which the effects of GEM upon mice into which cells of human cholangiocarcinoma cell line HuCCT1 were xenografted. The xenografted mice were then treated with one of five treatment regimens and the results observed over the study period of 90 days.
# To prepare the xenografted mice used in the study, 1×10^6 HuCCT1 human cholangiocarcinoma cells were transplanted subcutaneously on the right flank of 6 week old male BALB/c nude mice. Tumor growth was observed once a week and the tumor volume was measured as L×W^2/2 by caliper. Tumor development in the xenografted mice was then observed, and 40 such mice were selected for inclusion in the study when their tumor volume reached about 124 cubic millimeters. The mice were divided into 5 groups of 8 mice each for the study. The day on which mice were first dosed was designated “Day 0” of the study, and the study continued for 90 days.
# Mice of Group 1 were intraperitoneally injected with 60 mg/kg of GEM on days 0, 3, 6, and 9 of the study (i.e., Q3D×4) and were not further treated thereafter.
# Mice of Group 2 were intraperitoneally injected with 60 mg/kg of GEM on days 0, 3, 6, and 9 of the study (i.e., Q3D×4). Beginning on day 13 of the study, the mice were orally administered 10 mg/kg GEM in the GEMORAL composition (hereinafter “10 mg/kg GEMORAL”) every other day (i.e., Q2D×40) through the end of the study.
# Mice of Group 3 were intraperitoneally injected with 60 mg/kg of GEM on days 0, 3, 6, and 9 of the study (i.e., Q3D×4). Also beginning on day 1 of the study, the mice were orally administered 10 mg/kg GEMORAL every other day (i.e., Q2D×46) through the end of the study.
# Mice of Group 4 were orally administered 10 mg/kg GEMORAL every other day (i.e., Q2D×46), beginning on day 1 of the study and extending through the end of the study.
# (§1) Mice of Group 5 were controls and were not administered GEM. They were intraperitoneally injected with saline on days 0, 3, 6, and 9 of the study (i.e., Q3D×4). Beginning on day 13 of the study, the mice were orally administered distilled, deionized water every other day (i.e., Q2D×40) through the end of the study.
# The study was continued until day 90 and body weight losses among the mice of the various Groups were observed. In Group 3, all mice lost over 20% body weight by day 12.
# Values reflecting anti-tumor responses, as compared with vehicle treatment (T/C %) on different study days are indicated in Table 2. […] It is noteworthy that by day 12 the cumulative dose of GEM for Group 4 was only about 25% that of Group 1.
# [4] = system: CFPAC-1 pancreatic cancer xenografts; assay: Xenografted mouse model of human pancreatic cancer cell line CFPAC-1; format: in vivo, BALB/c nude mice; details: Group 1: GEM 120 mg/kg i.p. Q3D×23
# Protocol: Example 4 is a study in which the effects of GEM upon mice into which cells of human pancreatic cancer cell line CFPAC-1 were xenografted.
# To prepare the xenografted mice used in the study, 1×10^6 human CFPAC-1 pancreatic cancer cells were transplanted subcutaneously on the right flank of 6 week old male BALB/c nude mice. Tumor growth was observed once a week and the tumor volume was measured as L×W^2/2 by caliper. Tumor development in the xenografted mice was then observed, and 48 such mice were selected for inclusion in the study when their tumor volume reached about 141 cubic millimeters. The mice were divided into 6 groups of 8 mice each for the study. The day on which mice were first dosed was designated “Day 0” of the study, and the study continued for 91 days.
# Mice of Group 1 were intraperitoneally injected with 120 mg/kg of GEM on day 0 and every third day thereafter through day 66 (i.e., Q3D×23) and were not further treated thereafter.
# Mice of Group 2 were intraperitoneally injected with 120 mg/kg of GEM on days 0, 3, 6, and 9 of the study (i.e., Q3D×4). Beginning on day 12 of the study, the mice were orally administered 10 mg/kg GEM in the GEMORAL composition (hereinafter “10 mg/kg GEMORAL”) every other day (i.e., Q2D×28) through day 66; the mice were not further treated thereafter.
# Mice of Group 3 were intraperitoneally injected with 120 mg/kg of GEM on days 0, 3, 6, and 9 of the study (i.e., Q3D×4). Beginning on day 12 of the study, the mice were orally administered 3 mg/kg GEM in the GEMORAL composition (hereinafter “3 mg/kg GEMORAL”) every day (i.e., QD×55) through day 66; the mice were not further treated thereafter.
# Mice of Group 4 were orally administered 3 mg/kg GEMORAL every day (i.e., QD×92), beginning on day 0 of the study and extending through the end of the study.
# Mice of Group 5 were orally administered 10 mg/kg GEMORAL every other day (i.e., Q2D×46), beginning on day 0 of the study and extending through the end of the study.
# Mice of Group 6 were controls and were not administered GEM. […]
# [5] = system: patient-derived human cholangiocarcinoma xenografts; assay: Xenografted mouse model of patient-derived human cholangiocarcinoma; format: in vivo; details: Group 1: GEM 60 mg/kg i.p. Q3D×4
# Protocol: This example describes a study in which the effects of gemcitabine upon mice into which portions of a human patient-derived cholangiocarcinoma were xenografted. The xenografted mice were then treated with one of five treatment regimens and the results observed.
# To prepare the xenografted mice used in the study, primary human cholangiocarcinoma fragments obtained from human patients were injected into “stock” male BALB/c nude mice. Subsequently, tumor fragments (roughly 2-3 millimeters in diameter) were harvested from the “stock” mice and inoculated subcutaneously into the right flank of other male BALB/c nude mice. Tumor development in the inoculated mice was then observed, and 40 such mice were selected for inclusion in the study when their tumor volume reached about 180 cubic millimeters (volume was assessed by multiplying tumor length by ½ (tumor width squared) (i.e., L×W^2/2), length and width being measured using a caliper). The mice were divided into 5 groups of 8 mice each for the study, all mice in each group having tumors of approximately equal size. The day on which mice were first dosed was designated “Day 1” of the study, and the study continued for 76 days. The mice were divided into Groups 1, 2, 3, 4, and 5. Mice of each group were treated identically.
# Mice of Group 1 were intraperitoneally injected with 60 mg/kg of GEM on days 1, 4, 7, and 10 of the study (i.e., Q3D×4) and were not further treated thereafter. […]
# as §1, with “1, 4, 7,” for “0, 3, 6,”, “10” for “9”, “Q2D×32)” for “Q2D×40)”
# The study was continued until day 76 and the body weight losses among the mice of the various Groups were observed. […] For Group 3, 6 of 8 mice were dead by day 10.
# Values reflecting anti-tumor responses, as compared with vehicle treatment (T/C %, calculated as the ratio of average tumor volume in treatment group vs. average tumor volume in the control group {Group 5}, expressed as a percentage) on different study days are indicated in Table 1.
# [6] = MTD of GEM intravenous infusion regime in human cancer patients (Fossella et al.); format: in vivo
# Protocol: For GEM, others have determined MTD values for human cancer patients. For example, Fossella et al. (1997, J. Clin. Oncol. 15:310-316) estimated an MTD of 2,400 mg/m^2/week for a GEM intravenous infusion regime regime (2,400 mg/m^2 corresponding to 3,893 mg/60 kg for a human patient, equal to 64.988 mg/kg). Labeling for a commercial GEM product, marketed under the brand name GEMZAR (Eli Lilly and Co.) recommends an intravenous dosage of 1,000 or 1,250 mg/m^2. In details, GEMZAR dosage administration is conducted at a dose of 1,000 mg/m^2, corresponding to 1,622 mg/60 kg for a human patient, equal to 27.03 mg/kg, administered on Days 1 and 8 or Days 1, 8, and 15 of a 21-day cycle, or at a dose of 1,250 mg/m^2, corresponding to 2,027 mg/60 kg for a human patient, equal to 33.878 mg/kg, administered on Days 1, 8, and 15 of a 28-day cycle.
smiles,measurement,setting,value
"O=c1[nH]cc(F)c(=O)[nH]1 [5FU, 5-fluorouracil]",anti-tumor response attributable to 5FU treatment,"[1]; Group 2: 5FU 20 mg/kg i.p. thrice weekly, first 9 weeks",No significant anti-tumor response
same,anti-tumor response attributable to 5FU treatment,"[1]; Group 3: 5FU 20 mg/kg i.p. thrice weekly, first 3 weeks",No significant anti-tumor response
"Nc1ccn([C@@H]2O[C@H](CO)[C@@H](O)C2(F)F)c(=O)n1 [GEM, gemcitabine]",MTD,[2],"2,400 mg/m^2/week"
same,T/C,[3]; Day 12,54%
same,T/C,[3]; Day 37,60%
same,T/C,[3]; Day 58,93%
same,T/C,[3]; Day 76,96%
same,T/C,[3]; Day 90,82%
same,mean survival time (MST),[3],69 days
same,survival rate,"[3]; day 90, Kaplan-Maier",50%
same,maximum tumor growth inhibition value,[3]; on day 27,47%
same,days at which at least some mice were tumor free,[4],44 to 91 days
same,mice tumor free,[4]; at day 91,6/8
same,"maximum anti-tumor response, T/C",[4]; on day 81,0%
same,T/C,[5]; Day 14,52%
same,T/C,[5]; Day 42,22%
same,T/C,[5]; Day 73,46%
same,T/C,[5]; Day 76,49%
same,tumor growth after end of dosing,[5]; after day 11,significant tumor growth after completing the scheduled dosing
same,mice dead (died or tumor size >1000 cubic millimeters),[5]; by day 76,4 of 8
same,MTD (corresponding dose for a human patient),"[6]; converted from 2,400 mg/m^2","3,893 mg/60 kg"
same,MTD,"[6]; human, in vivo, converted from 2,400 mg/m^2, read-out: MTD (corresponding dose per body weight)",65 mg/kg
